According to patent publication US7910694B2, “Homing peptides to receptors of heart vasculature” (Cornell Research Foundation, Inc., priority 2002, dated 2011):
Entries after “also recorded” stand apart in the source; their conditions may differ. Blank lines part the entries; values can stand above or below the substance they belong to.

Key:
[1] = system: receptors in the heart vasculature; experiment: Binding of homing peptides to receptors in heart vasculature versus other organs; set-up: species or system mammal; conditions: for binding to BDNF receptor(s) in the vasculature of older hearts: usually trkB, more commonly truncated trkB; for binding to receptors on other organs (than heart, or heart and brain): organ selectivity
[2] = system: cardiac microvascular endothelial cells (CMECs); experiment: PDGF-B induction (RT-PCR) after TNFα treatment of cultured CMECs; type: cell-based, F344 rats; conditions: 4-month old rat CMECs, TNFα 30 ng/ml, 3 hr
Description: FIG. 4. Aging-associated alterations in cardiac microvascular TNFα receptor pathways. (A) Representative immunostaining for TNF receptor 1 and 2 in the subepicardium and subendocardium of 3- and 18-month old murine hearts. (B) TNF receptor 1 and 2 densities in the subendocardium of 3- and 18-month old murine hearts (n=3, each). (C) RT-PCR for PDGF-B induction after TNFα treatment of 4- and 24-month old rat CMECs.
The functional significance of the changes in TNF receptor in the aging cardiac microvasculature was examined in vitro. Cardiac microvascular endothelial cells (CMECS) of 4 and 24-month old F344 rats were isolated and cultured. Briefly, the hearts were removed and minced in endothelial cell medium (DMEM containing 20% FBS, 1% endothelial cell growth factor, 1% endothelial cell growth supplement, 1% BME, 10^−4% heparin and 1% penicillin [10,000 I.U./ml]/streptomycin [10,000 μg/ml]), and digested with medium containing 0.2% collagenase and 0.005% Dnase, and 5% FBS for 45 minutes with subsequent endothelial cells isolation by PECAM-mediated magnetic particle collection (Dynabeads). The resultant CMECs (Dil-LDL uptake>95%) were cultured for 2 passages and seeded into 12-well culture dish (10^5 cells/well) and grown to confluence. Medium was changed to serum free-DMEM for 1 hr and then to medium containing 2% FBS+TNFα (30 ng/ml) for 3 hr.

PDGF-B = experiment: Intramyocardial injection of TNFα: PDGF-B immunostaining in hearts; type: in vivo, F344 rats; conditions: 100 ng intramyocardial, 24 h
Protocol: (§1) FIG. 5. Aging-associated alterations in TNFα cardioprotection. (A) Representative immunostaining for PDGF-B in rat hearts injected with TNFα or PBS vehicle 24 h prior to sacrifice. (B) Quantification of PDGF-B density in the injected hearts (n=3, each group). (C) Representative cardiac histology after coronary occlusion: Mason's trichrome staining for myocardial necrosis (14 day post-coronary occlusion) in 4- and 24-month old rat hears treated with PBS (4- and 24-month old, n=4 and 10, respectively) and TNFα (4-month old, n=4); and (D) tunnel staining for apoptosis (DAB) with hematoxylin counter stain (2 day post-coronary occlusion) in 24-month old hearts treated with TNFα (n=10; 80% mortality vs. PBS 0%; p<0.05). (E) Quantification of myocardial necrosis in rat hearts 14 day post-coronary occlusion.
(§2) To examine the age-dependent effects of TNFα PDGF-B expression and protection from myocardial necrosis, sets of 4- and 24-month old F344 rats received intramyocardial injections of growth factor.

myocardial infarction = experiment: Intramyocardial TNFα followed by coronary occlusion: myocardial necrosis, apoptosis, mortality; type: in vivo, F344 rats
Protocol: as §1, §2

binding to BDNF receptor(s) in the vasculature of older hearts [1]: bind | binding to receptors on other organs (than heart, or heart and brain) [1]: do not bind significantly
Substance: ARRGQAV

binding to BDNF receptor(s) in the vasculature of older hearts [1]: bind | binding to receptors on other organs (than heart, or heart and brain) [1]: do not bind significantly
Substance: GRRFIRV

binding to receptors on other organs (than heart, or heart and brain) [1]: does not bind significantly | binding capacity to TNF receptor(s) in vasculature of young versus older hearts ([1]; young vs older hearts): more binding capacity
Substance: QAQGQLV

Substance: TNFα: tumor necrosis factor α, growth factor injected intramyocardially or added to CMECs (NPQAEGQLQV)
PDGF-B expression in CMECs from young hearts [2]: induced | PDGF-B in young hearts in vivo (PDGF-B; 4-month old rats): specifically induced increase | PDGF-B in aging hearts in vivo (PDGF-B; 24-month old rats): minimal effect | extent of myocardial infarction in young hearts (myocardial infarction; 4-month old rats, 14 day post-coronary occlusion): markedly reduced | apoptosis in older hearts (myocardial infarction; 24-month old rats, anterior left ventricular wall, 2 day post-coronary occlusion): extensive apoptosis; also recorded: induced apoptosis | mortality in older rats (myocardial infarction; 24-month old rats, within 72 h of coronary occlusion): 80%
